Consider six compounds from patent US6458773B1, “Nucleoside with anti-hepatitis B virus activity” (Emory University, priority 1998, dated 2002).

In one data set the test system is HBV. As to the kind of experiment: Anti-HBV activity in transfected 2.2.15 cells (HBV DNA replication intermediates, blot hybridization). It is filed as cell-based, hepatitis B virus. As to conditions: read-out: EC50 (μM) R.I. As for the experimental part:
The antiviral evaluations were performed on two separate passages of cells, two cultures per passage (4 cultures total). All wells, in all plates, were seeded at the same density and at the same time.
Due to the inherent variations in the levels of both intracellular and extracellular HBV DNA, only depressions greater than 3.0-fold (for HBV virion DNA) or 2.5-fold (for HBV DNA replication intermediates) from the average levels for these HBV DNA forms in untreated cells are generally considered to be statistically significant [P<0.05] (Korba and Gerin, Antiviral Res. 19: 55-70, 1992). The levels of integrated HBV DNA in each cellular DNA preparation (which remain constant on a per cell basis in these experiments) were used to calculate the levels of intracellular HBV DNA forms, thereby eliminating technical variations inherent in the blot hybridization assays.
Typical values for extracellular HBV virion DNA in untreated cells range from 50 to 150 pg/ml culture medium (average of approximately 76 pg/ml). Intracellular HBV DNA replication intermediates in untreated cells range from 50 to 100 pg/ug cell DNA (average approximately 74 pg/ug cell DNA). In general, depressions in the levels of intracellular HBV DNA due to treatment with antiviral compounds are less pronounced, and occur more slowly, than depressions in the levels of HBV virion DNA.
For reference, the manner in which the hybridization analyses were performed for these experiments results in an equivalence of approximately 1.0 pg intracellular HBV DNA/ug cellular DNA to 2-3 genomic copies per cell and 1.0 pg of extracellular HBV DNA/ml culture medium to 3×10^5 viral particles/ml.
The test compounds were used in the form of stock solutions in DMSO (frozen on dry ice). Daily aliquots of the test samples were made and frozen at −20° C. so that each individual aliquot would be subjected to a single freeze-thaw cycle. The daily test aliquots were thawed, suspended into culture medium at room temperature and immediately added to the cell cultures.
The ability of the active compounds to inhibit the growth of virus in 2.2.15 cell cultures (HepG2 cells transformed with hepatitis virion) was evaluated.

For a further data set, the system named is BFU-E. As to the kind of experiment: Human bone marrow clonogenic assay, BFU-E. Type of data set: cell-based. As to conditions: effect on cell growth.
The next data set relates to CFU-GM. As to the kind of experiment: Human bone marrow clonogenic assay, CFU-GM. Type of data set: cell-based. Particulars: effect on cell growth.
Data set [1] concerns Normal Hep G2 cells. As to conditions: neutral red dye uptake; typically observed in these assays (Korba and Gerin 1992); cited from earlier work.
A short description of data set [2]: Cytotoxicity by uptake of neutral red dye. Particulars: human, Normal Hep G2 cells. Type of data set: cell-based. As for the experimental part: (§1) Toxicity analyses were performed in order to assess whether any observed antiviral effects were due to a general effect on cell viability. This can be assessed by the uptake of neutral red dye, a standard and widely used assay for cell viability in a variety of virus-host systems, including HSV (herpes simplex virus) and HIV.
(§2) Toxicity analyses were performed in 96-well flat bottomed tissue culture plates. Cells for the toxicity analyses were cultured and treated with test compounds with the same schedule as used for the antiviral evaluations. Each compound was tested at 4 concentrations, each in triplicate cultures. Uptake of neutral red dye was used to determine the relative level of toxicity. The absorbance of internalized dye at […] (A510) was used for the quantitative analysis. Values are presented as a percentage of the average A510 values (±standard deviations) in 9 separate cultures of untreated cells maintained on the same 96-well plate as the test compounds.

Data set [3] concerns Normal Hep G2 cells. The data set is described as follows: Cytotoxicity by uptake of neutral red dye. Type of data set: cell-based. As for the experimental part: as §1, §2
[4] abbreviates: Transfected 2.2.15 cells, HBV DNA replication intermediates (R.I.).

The structures appear in SMILES notation. pEC50: −log10 of the molar value. Where two headings read alike, the source gives them in different places. A value given as a limit tells only on which side of the number the result lay.

For orientation: EC50 means the concentration needed to bring the measured effect to its halfway point. Turning to `Nc1ccn([C@@H]2CS[C@H](CO)O2)c(=O)n1` (single isomer, unassigned) [Lamivudine (3TC), (−)-enantiomer of cis-2-hydroxymethyl-5-(cytosin-1-yl)-1,3-oxathiolane], the EC50 in the data set on HBV (setting [4]) was 0.03 µM.
As a reminder, the pEC50 is the EC50 on a negative log10 scale, so that one unit is a factor of ten. Read a low pEC50 as a high EC50. As to `Nc1ccn([C@H]2CC[C@@H](CO)O2)c(=O)n1` [D-ddC, 2′,3′-dideoxycytidine], the negative logarithm of the EC50 (pEC50) in the data set with BFU-E is 7.30; in the data set on CFU-GM it was 6.15. For the same compound, the “concentration giving a 2-fold reduction in dye uptake versus untreated cultures” value with Normal Hep G2 cells [1] is 150 to 190 µM.
The term CC50 denotes the concentration at which the toxic effect on the cells reaches its halfway point. For `[N-]=[N+]=NC1C[C@@H](n2cc(F)c(N)nc2=O)O[C@H]1CO` (stereo partly drawn) [L-3-azido-5-FddC, β-L-(3′-azido)-2′,3′-dideoxy-5-fluorocytidine], the pEC50 with BFU-E and in the data set on CFU-GM was 5.00 each time. For the same compound, in data set [2], the CC50 was over 200000 nM. The EC50 in the data set on HBV (Hepatitis B virus, Transfected 2.2.15 cells, HBV DNA replication intermediates (R.I.)) was found to be 0.01 µM.
As for `Cc1cn([C@H]2C[C@H](N=[N+]=[N-])[C@@H](CO)O2)c(=O)[nH]c1=O` [Zidovudine (AZT), 3′-azido-3′-deoxythymidine], the pEC50 in the data set on BFU-E is 6.22; in the data set on CFU-GM, 5.72.
Take `Nc1nc(=O)n([C@H]2CC[C@@H](CO)O2)cc1F` [Compound L-5-FddC]: the negative-log EC50 (pEC50) in the data set with BFU-E was 5.74; in the data set with CFU-GM, 5.92. Further, in the data set with Normal Hep G2 cells [3], the CC50 was over 200000 nM. The EC50 in the data set with HBV (setting [4]) amounted to 0.05 µM.
For the compound `[N-]=[N+]=N[C@H]1C[C@H](CO)O[C@@H]1n1cc(F)c(N)nc1=O` [L-2-azido-5-FddC, 1-(2,3-Dideoxy-2-azido-β-L-erythro-pentofuranosyl)-5-fluorocytosine], the pEC50 with BFU-E and in the data set on CFU-GM was under 5.00 throughout. The CC50 in data set [2] is over 200000 nM. Further, the EC50 in the data set on HBV (Hepatitis B virus) was found to be 0.1 µM.
